Assay results taken from the supplement of paper PMC10307832.

Experiments:
Test in all cases: relative viability (nuclei count vs DMSO), 5 days (fraction); higher = more cells survive
EPLC-272H = system: EPLC-272H
How it was run: (§1)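 Dosing by pin tool came one day after lung cancer cell lines were seeded in 1536-well plates, using either one drug or a fixed anchor-drug dose plus five library-drug doses (not always all listed) in √10 steps. After 5 days, nuclei were counted on 4× images. Relative viability is treated-well nuclei count divided by vehicle-well nuclei count, and values are medians of duplicate plates.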

EMC-BAC-2 = system: EMC-BAC-2
How it was run: as §1

SK-MES-1 = system: SK-MES-1
How it was run: as §1

EKVX = system: EKVX
How it was run: as §1

COR-L 105 = system: COR-L 105
How it was run: as §1

SW 1573 = system: SW 1573
How it was run: as §1

LU99A = system: LU99A
How it was run: as §1

LOU-NH91 = system: LOU-NH91
How it was run: as §1

NCI-H1792 = system: NCI-H1792
How it was run: as §1

HCC-78 = system: HCC-78
How it was run: as §1

RERF-LC-KJ = system: RERF-LC-KJ
How it was run: as §1

BEN = system: BEN
How it was run: as §1

LCLC-97TM1 = system: LCLC-97TM1
How it was run: as §1

NCI-H727 = system: NCI-H727
How it was run: as §1

NCI-H1650 = system: NCI-H1650
How it was run: as §1

LK-2 = system: LK-2
How it was run: as §1

NCI-H2126 = system: NCI-H2126
How it was run: as §1

HCC-827 = system: HCC-827
How it was run: as §1

NCI-H2087 = system: NCI-H2087
How it was run: as §1

NCI-H1734 = system: NCI-H1734
How it was run: as §1

NCI-H358 = system: NCI-H358
How it was run: as §1

NCI-H1944 = system: NCI-H1944
How it was run: as §1

O=c1[nH]c2ccccc2n1C1CCN(CCCC(c2ccc(F)cc2)c2ccc(F)cc2)CC1 [Pimozide] + CS(=O)(=O)CCNCc1ccc(-c2ccc3ncnc(Nc4ccc(OCc5cccc(F)c5)c(Cl)c4)c3c2)o1 [Lapatinib] (partner 2 µM)
relative viability (EPLC-272H; first compound 0.08 µM): 0.819 | relative viability (EPLC-272H; first compound 0.253 µM): 0.945 | relative viability (EPLC-272H; first compound 0.8 µM): 0.716 | relative viability (EPLC-272H; first compound 2.53 µM): 0.809 | relative viability (EPLC-272H; first compound 8 µM): 0.689 | relative viability (EMC-BAC-2; first compound 0.08 µM): 0.865 | relative viability (EMC-BAC-2; first compound 0.253 µM): 0.832 | relative viability (EMC-BAC-2; first compound 0.8 µM): 0.843 | relative viability (EMC-BAC-2; first compound 2.53 µM): 0.885 | relative viability (EMC-BAC-2; first compound 8 µM): 0.868 | relative viability (SK-MES-1; first compound 0.08 µM): 0.468 | relative viability (SK-MES-1; first compound 0.253 µM): 0.445 | relative viability (SK-MES-1; first compound 0.8 µM): 0.451 | relative viability (SK-MES-1; first compound 2.53 µM): 0.491 | relative viability (SK-MES-1; first compound 8 µM): 0.507 | relative viability (EKVX; first compound 0.253 µM): 0.177 | relative viability (EKVX; first compound 0.8 µM): 0.221 | relative viability (EKVX; first compound 2.53 µM): 0.216 | relative viability (EKVX; first compound 8 µM): 0.464 | relative viability (COR-L 105; first compound 0.253 µM): 0.395 | relative viability (COR-L 105; first compound 0.8 µM): 0.377 | relative viability (COR-L 105; first compound 2.53 µM): 0.396 | relative viability (COR-L 105; first compound 8 µM): 0.351 | relative viability (SW 1573; first compound 0.08 µM): 1.11 | relative viability (SW 1573; first compound 0.253 µM): 1.12 | relative viability (SW 1573; first compound 0.8 µM): 1.12 | relative viability (SW 1573; first compound 2.53 µM): 1.16 | relative viability (SW 1573; first compound 8 µM): 1.11 | relative viability (LU99A; first compound 0.08 µM): 0.969 | relative viability (LU99A; first compound 0.253 µM): 0.982 | relative viability (LU99A; first compound 0.8 µM): 0.757 | relative viability (LU99A; first compound 2.53 µM): 1.03 | relative viability (LU99A; first compound 8 µM): 0.888 | relative viability (LOU-NH91; first compound 0.08 µM): 0.736 | relative viability (LOU-NH91; first compound 0.253 µM): 0.694 | relative viability (LOU-NH91; first compound 0.8 µM): 0.751 | relative viability (LOU-NH91; first compound 2.53 µM): 0.833 | relative viability (LOU-NH91; first compound 8 µM): 0.785 | relative viability (NCI-H1792; first compound 0.08 µM): 0.888 | relative viability (NCI-H1792; first compound 0.253 µM): 0.784 | relative viability (NCI-H1792; first compound 0.8 µM): 0.83 | relative viability (NCI-H1792; first compound 2.53 µM): 0.846 | relative viability (NCI-H1792; first compound 8 µM): 0.869 | relative viability (HCC-78; first compound 0.08 µM): 0.484 | relative viability (HCC-78; first compound 0.253 µM): 0.831 | relative viability (HCC-78; first compound 0.8 µM): 0.54 | relative viability (HCC-78; first compound 2.53 µM): 0.608 | relative viability (HCC-78; first compound 8 µM): 0.889 | relative viability (RERF-LC-KJ; first compound 0.08 µM): 0.885 | relative viability (RERF-LC-KJ; first compound 0.253 µM): 0.801 | relative viability (RERF-LC-KJ; first compound 0.8 µM): 0.776 | relative viability (RERF-LC-KJ; first compound 2.53 µM): 0.784 | relative viability (RERF-LC-KJ; first compound 8 µM): 0.742 | relative viability (BEN; first compound 0.08 µM): 0.615 | relative viability (BEN; first compound 0.253 µM): 0.854 | relative viability (BEN; first compound 0.8 µM): 0.73 | relative viability (BEN; first compound 2.53 µM): 0.669 | relative viability (BEN; first compound 8 µM): 0.728 | relative viability (LCLC-97TM1; first compound 0.08 µM): 0.957 | relative viability (LCLC-97TM1; first compound 0.253 µM): 0.856 | relative viability (LCLC-97TM1; first compound 0.8 µM): 0.957 | relative viability (LCLC-97TM1; first compound 2.53 µM): 0.981 | relative viability (LCLC-97TM1; first compound 8 µM): 0.814 | relative viability (NCI-H727; first compound 0.08 µM): 0.8 | relative viability (NCI-H727; first compound 0.253 µM): 0.922 | relative viability (NCI-H727; first compound 0.8 µM): 0.85 | relative viability (NCI-H727; first compound 2.53 µM): 0.754 | relative viability (NCI-H727; first compound 8 µM): 0.769 | relative viability (NCI-H1650; first compound 0.08 µM): 0.711 | relative viability (NCI-H1650; first compound 0.253 µM): 0.809 | relative viability (NCI-H1650; first compound 0.8 µM): 0.451 | relative viability (NCI-H1650; first compound 2.53 µM): 0.733 | relative viability (NCI-H1650; first compound 8 µM): 0.146 | relative viability (LK-2; first compound 0.08 µM): 0.851 | relative viability (LK-2; first compound 0.253 µM): 0.842 | relative viability (LK-2; first compound 0.8 µM): 0.731 | relative viability (LK-2; first compound 2.53 µM): 0.78 | relative viability (LK-2; first compound 8 µM): 1.13 | relative viability (NCI-H2126; first compound 0.08 µM): 0.743 | relative viability (NCI-H2126; first compound 0.253 µM): 0.675 | relative viability (NCI-H2126; first compound 0.8 µM): 0.708 | relative viability (NCI-H2126; first compound 2.53 µM): 0.724 | relative viability (NCI-H2126; first compound 8 µM): 0.766 | relative viability (HCC-827; first compound 0.253 µM): 0.205 | relative viability (HCC-827; first compound 0.8 µM): 0.189 | relative viability (HCC-827; first compound 2.53 µM): 0.179 | relative viability (HCC-827; first compound 8 µM): 0.194 | relative viability (NCI-H2087; first compound 0.08 µM): 0.999 | relative viability (NCI-H2087; first compound 0.253 µM): 1.1 | relative viability (NCI-H2087; first compound 0.8 µM): 0.825 | relative viability (NCI-H2087; first compound 2.53 µM): 1.06 | relative viability (NCI-H2087; first compound 8 µM): 0.847 | relative viability (NCI-H1734; first compound 0.08 µM): 1.04 | relative viability (NCI-H1734; first compound 0.253 µM): 1.07 | relative viability (NCI-H1734; first compound 0.8 µM): 0.978 | relative viability (NCI-H1734; first compound 2.53 µM): 0.96 | relative viability (NCI-H1734; first compound 8 µM): 0.671 | relative viability (NCI-H358; first compound 0.08 µM): 0.506 | relative viability (NCI-H358; first compound 0.253 µM): 0.488 | relative viability (NCI-H358; first compound 0.8 µM): 0.433 | relative viability (NCI-H358; first compound 2.53 µM): 0.477 | relative viability (NCI-H358; first compound 8 µM): 0.4 | relative viability (NCI-H1944; first compound 0.08 µM): 0.802 | relative viability (NCI-H1944; first compound 0.253 µM): 0.76 | relative viability (NCI-H1944; first compound 0.8 µM): 0.62 | relative viability (NCI-H1944; first compound 2.53 µM): 0.772 | relative viability (NCI-H1944; first compound 8 µM): 0.794
